The values that follow come from patent US7897582B2, “Oligonucleotide compositions and methods for the modulation of the expression of B7 protein” (Isis Pharmaceuticals, Inc., priority 2003, dated 2011).

Strand notation (5' to 3'): a small letter for the sugar, then the base; units joined by * are phosphorothioate-linked, units joined directly phosphodiester-linked; [ ] holds rarer units or linkages, { } end groups; capitals alone tell only the bases. e = 2'-O-(2-methoxyethyl) (MOE); [5mC] = 5-methylcytosine; d = 2'-deoxy (DNA)

For series [1], the system named is human B7-1. The experiment in a line: Cell surface expression of B7-1 in pcB7-1-transfected COS-7 cells by flow cytometry. It counts as cell-based. Conditions: for % B7-1 EXPRESSION: human B7 cell surface expression, Table 16. Here is the method: The ability of oligonucleotides to inhibit B7-1 expression was evaluated by measuring the cell surface expression of B7-1 in transfected COS-7 cells by flow cytometry.
(§1) A T-175 flask was seeded at 75% confluency with COS-7 cells (ATCC accession No. CRL 1651). The plasmid pcB7-1 was introduced into cells by standard calcium phosphate transfection. Following a 4 hour transfection, the cells were trypsinized and seeded in 12-well dishes at 80% confluency. The cells were allowed to adhere to the plastic for 1 hour and were then washed with phosphate-buffered saline (PBS). OptiMEM™ (GIBCO-BRL, Gaithersburg, Md.) medium was added along with 15 μg/mL of Lipofectin™ (GIBCO-BRL, Gaithersburg, Md.) and oligonucleotide at the indicated concentrations. After four additional hours, the cells were washed with phosphate buffered saline (PBS) and incubated with fresh oligonucleotide at the same concentration in DMEM (Dulbecco et al., Virol., 1959, 8, 396; Smith et al., Virol., 1960, 12, 185) with 10% fetal calf sera (FCS).
(§2) In order to monitor the effects of oligonucleotides on cell surface expression of B7-1, treated COS-7 cells were harvested by brief trypsinization 24-48 hours after oligonucleotide treatment. The cells were washed with PBS, then resuspended in 100 μL of staining buffer (PBS, 0.2% BSA, 0.1% azide) with 5 μL conjugated anti-B7-1-antibody (i.e., anti-hCD80-FITC, Ancell, Bayport, Minn.; FITC: fluorescein isothiocyanate). The cells were stained for 30 minutes at 4° C., washed with PBS, resuspended in 300 μL containing 0.5% paraformaldehyde. Cells were harvested and the fluorescence profiles were determined using a flow cytometer.
(§3) B7 antisense oligonucleotides were tested for their effect on cell surface expression of both B7-1 and B7-2. Cell surface expression was measured as described in Example 1. Experiments were done for both human B7 and mouse B7.
The oligonucleotides were screened as described in Example 2 except that the concentration of oligonucleotide was varied as shown in Table 18.

Series [2] deals with hB7-2 mRNA. The experiment in a line: Ribonuclease protection assay of hB7-2 mRNA in transfected COS-7 cells. It counts as cell-based, human. Here is the method: For ribonuclease protection assays, cells were harvested 18 hours after completion of oligonucleotide treatment using a Totally RNA™ kit (Ambion, Austin, Tex.). The probes for the assay were generated from plasmids pcB7-2 (linearized by digestion with Bgl II) and pTRI-b-actin (Ambion Inc., Austin, Tex.). In vitro transcription of the linearized plasmid from the SP6 promoter was performed in the presence of α-^32P-UTP (800 Ci/mmole) yielding an antisense RNA complementary to the 3′ end of B7-2 (position 1044-1391). The probe was gel-purified after treatment with DNase I to remove DNA template. Ribonuclease protection assays were carried out using an RPA II™ kit (Ambion) according to the manufacturer's directions. Total RNA (5 μg) was hybridized overnight, at 42° C., with 10^5 cpm of the B7-2 probe or a control beta-actin probe. The hybridization reaction was then treated, at 37° C. for 30 minutes, with 0.4 units of RNase A and 2 units of RNase T1. Protected RNA was precipitated, resuspended in 10 μL of gel loading buffer and electrophoresed on a 6% acrylamide gel with 50% w/v urea at 20 W. The gel was then exposed and the lanes quantitated using a PhosphorImager (Molecular Dynamics, Sunnyvale, Calif.) essentially according to the manufacturer's instructions.
The oligonucleotides were screened as described in Example 4 except that the concentration of oligonucleotide was varied as shown in Table 13. Mismatch control oligonucleotides were included.

The test system of series [3] is human B7-2. The experiment in a line: Cell surface expression of B7-2 in transfected COS-7 cells by flow cytometry. It counts as cell-based. The settings on record: for % Surface Inhibition / % Surface Expression: COS-7 cells, B7-2 cell surface; for % Surface Expression: basal = 100%; for % B7-2 EXPRESSION: human B7 cell surface expression, Table 16. Here is the method: as §1, §2
In an initial screen, the ability of hB7-2 oligonucleotides to inhibit B7-2 expression was evaluated by measuring the cell surface expression of B7-2 in transfected COS-7 cells by flow cytometry. The methods used were similar to those given in Example 2, with the exceptions that (1) COS-7 cells were transfected with the plasmids pbcB7-2 or BBG-58, a human ICAM-1 (CD54) expression vector (R&D Systems, Minneapolis, Minn.) introduced into cells by standard calcium phosphate transfection, (2) the oligonucleotides used were those described in Table 2, and (3) a conjugated anti-B7-2 antibody (i.e., anti-hCD86-FITC or anti-CD86-PE, PharMingen, San Diego, Calif.; PE: phycoerythrin) was used during flow cytometry.
as §3
The oligonucleotides were screened as described in Example 2 except that the concentration of oligonucleotide was varied as shown in Table 19.

In series [4] the test system is Human B7-1 mRNA. Nature of the series: Human B7-1 mRNA expression in electroporated, LPS-induced THP-1 cells. The series is classed as cell-based. The settings on record: THP-1 cells electroporated at 10 micromolar oligonucleotide, LPS 1 μg/ml 16 hours. The source says:
The human promonocytic leukaemia cell line, THP-1 (American Type Culture Collection, Manassas, Va.) was maintained in RPMI 1640 growth media supplemented with 10% fetal calf serum (FCS; Life Technologies, Rockville, Md.). A total of 1×10^7 cells were electroporated at an oligonucleotide concentration of 10 micromolar in 2 mm cuvettes, using an Electrocell Manipulator 600 instrument (Biotechnologies and Experimental Research, Inc.) employing 200 V, 1000 μF. Electroporated cells were then transferred to petri dishes and allowed to recover for 16 hrs. Cells were then induced with LPS at a final concentration of 1 μg/ml for 16 hours. RNA was isolated and processed as described in previous examples.

Setting [5] is: COS-7 cells, B7-2 mRNA, oligonucleotide dose 10 nM.
Setting [6] is: COS-7 cells, B7-2 mRNA, oligonucleotide dose 10 nM, basal = 100%.
Where [7] appears, read: COS-7 cells, B7-2 mRNA, oligonucleotide dose 30 nM.
Where [8] appears, read: COS-7 cells, B7-2 mRNA, oligonucleotide dose 30 nM, basal = 100%.
Setting [9] is: COS-7 cells, B7-2 mRNA, oligonucleotide dose 100 nM.
[10] abbreviates: COS-7 cells, B7-2 mRNA, oligonucleotide dose 100 nM, basal = 100%.
[11] abbreviates: COS-7 cells, B7-2 mRNA, oligonucleotide dose 300 nM.
The mark [12] stands for this setting: COS-7 cells, B7-2 mRNA, oligonucleotide dose 300 nM, basal = 100%.

Turning to “22284 (eT*eG*e[5mC]*eG*eA*dG*d[5mC]*dT*d[5mC]*d[5mC]*d[5mC]*d[5mC]*dG*dT*dA*e[5mC]*e[5mC]*eT*e[5mC]*e[5mC]; antisense) [compound 22284]”, the “% B7-1 EXPRESSION” value in series [1] was 88%. For the same substance, the “% mRNA INHIBITION” value in series [2] (setting [5]) amounted to 8%; in series [2] (setting [7]) it was 28%; in series [2] (setting [9]) it was 41%; in series [2] (setting [11]), 52%. For the same substance, the “% mRNA EXPRESSION” value turned out to be 92% in series [2] (setting [6]); 72% in series [2] (setting [8]); 59% in series [2] (setting [10]); 48% in series [2] (setting [12]); 30% in series [2] (human B7-2 mRNA, Table 12). In addition, the “% Surface Inhibition” value in series [3] (dose 10 nM) came to 37%; in series [3] (dose 30 nM), 40%; in series [3] (dose 100 nM), 63%; in series [3] (dose 300 nM) it was 85%. Further, the “% Surface Expression” value in series [3] (dose 10 nM) was found to be 63%; in series [3] (dose 30 nM), 60%; in series [3] (dose 100 nM) it was 37%; in series [3] (dose 300 nM), 15%. In addition, the “% B7-2 EXPRESSION” value in series [3] came to 32%.

As for “22287 (eA*eG*eA*eA*eT*dG*dT*dT*dA*d[5mC]*dT*d[5mC]*dA*dG*dT*e[5mC]*e[5mC]*e[5mC]*eA*eT; antisense) [compound 22287]”, the “% B7-1 EXPRESSION” value in series [1] was 92%. For the same substance, the “% mRNA INHIBITION” value in series [2] (setting [5]) is given as 7%; in series [2] (setting [7]), 21%; in series [2] (setting [9]), 34%; in series [2] (setting [11]), 55%. The “% mRNA EXPRESSION” value worked out at 93% in series [2] (setting [6]); 79% in series [2] (setting [8]); 66% in series [2] (setting [10]); 45% in series [2] (setting [12]); 27% in series [2] (human B7-2 mRNA, Table 12). The “% Surface Inhibition” value came to 7% in series [3] (dose 10 nM), 40% in series [3] (dose 30 nM), 68% in series [3] (dose 100 nM) and 85% in series [3] (dose 300 nM). The “% Surface Expression” value worked out at 93% in series [3] (dose 10 nM), 60% in series [3] (dose 30 nM), 32% in series [3] (dose 100 nM) and 15% in series [3] (dose 300 nM). Further, the “% B7-2 EXPRESSION” value in series [3] came out at 35%.

On to “113509 (antisense e[5mC]*eA*eT*eG*eA*dA*dG*d[5mC]*dT*dG*dT*dG*dG*dT*dT*eG*eG*eT*eT*eG) [compound 113509]”, for which, in series [4], the “% mRNA EXPRESSION” value came to 62% and the “% mRNA INHIBITION” value is on record as 38%.

With “113510 (antisense eA*eG*eG*eA*eA*dA*dA*dT*dG*d[5mC]*dT*d[5mC]*dT*dT*dG*e[5mC]*eT*eT*eG*eG) [compound 113510]”, in series [4], the “% mRNA EXPRESSION” value is listed as 43% and the “% mRNA INHIBITION” value is given as 57%.

For “113511 (antisense eT*eG*eG*eG*eA*dG*d[5mC]*dA*dG*dG*dT*dT*dA*dT*d[5mC]*eA*eG*eG*eA*eA) [compound 113511]”, in series [4], the “% mRNA EXPRESSION” value is 48% and the “% mRNA INHIBITION” value was found to be 52%.

Take “113512 (antisense eT*eA*eA*eG*eG*dT*dA*dA*dT*dG*dG*d[5mC]*d[5mC]*d[5mC]*dA*eG*eG*eA*eT*eG) [compound 113512]”: in series [4], the “% mRNA EXPRESSION” value is recorded as 73% and the “% mRNA INHIBITION” value is listed as 27%.

With “113513 (antisense eG*eG*eT*e[5mC]*eA*dG*dG*d[5mC]*dA*dG*d[5mC]*dA*dT*dA*dT*e[5mC]*eA*e[5mC]*eA*eA) [compound 113513]”, in series [4], the “% mRNA EXPRESSION” value came to 48% and the “% mRNA INHIBITION” value is recorded as 52%.

For “113515 (antisense eA*eG*eA*eT*e[5mC]*dT*dT*dT*dT*d[5mC]*dA*dG*d[5mC]*d[5mC]*d[5mC]*e[5mC]*eT*eT*eG*e[5mC]) [compound 113515]”, in series [4], the “% mRNA EXPRESSION” value was 184%.

Consider “113516 (antisense eT*eT*eT*eG*eT*dT*dA*dA*dG*dG*dG*dA*dA*dG*dA*eA*eT*eG*e[5mC]*e[5mC]) [compound 113516]”, for which, in series [4], the “% mRNA EXPRESSION” value was 83% and the “% mRNA INHIBITION” value turned out to be 17%.

Regarding “113517 (antisense eA*eA*eA*eG*eG*dA*dG*dA*dG*dG*dG*dA*dT*dG*d[5mC]*e[5mC]*eA*eG*e[5mC]*e[5mC]) [compound 113517]”, in series [4], the “% mRNA EXPRESSION” value is 201%.

Take “113518 (antisense e[5mC]*eA*eA*eG*eA*d[5mC]*dA*dA*dT*dT*d[5mC]*dA*dA*dG*dA*eT*eG*eG*e[5mC]*eA) [compound 113518]”: in series [4], the “% mRNA EXPRESSION” value is listed as 97% and the “% mRNA INHIBITION” value is recorded as 03%.

Consider “ISIS 13800: phosphorothioate oligonucleotide to human B7-1 mRNA 0158-0177; 5′ UTR; SEQ ID NO: 25 (antisense dA*dC*dA*dC*dA*dC*dA*dG*dA*dG*dA*dT*dT*dG*dG*dA*dG*dG*dG*dT)”, for which, in series [1] (COS-7 cells transiently expressing B7-1 cDNA, FIG. 1), the “inhibition of B7-1 expression” value is listed as “essentially no inhibition”. Besides, the “inhibition of cell surface expression of B7-1 at various concentrations” value in series [1] (dose response, FIG. 2) was “essentially inactive”.

With “ISIS 13872: scrambled control of ISIS 13812; SEQ ID NO: 52 (SEQ ID NO: 37) (antisense dA*dG*dT*dC*dC*dT*dA*dC*dT*dA*dC*dC*dA*dG*dC*dC*dG*dC*dC*dT) [reference compound]”, the “effect on B7-1 expression (specificity)” value in series [1] (FIG. 5) is “essentially no activity”. Moreover, in series [3] (FIG. 5), the “effect on B7-2 expression (specificity)” value is reported as “essentially no activity”.
